From PubChem BioAssay AID2060358 (Molecular Pharmacology Branch, DTP, NCI, 2025)
pIC50: −log10 of the molar value. Activity calls are given as the source filed them. How the source made its calls: active means viability on the fitted dose curve at most 10% of control; inactive means the rest.

System: 254851-301-R-J1-PDC spheroids, viability % test/control
Test: Anticancer human tumor 254851-301-R-J1-PDC patient-derived colon carcinoma cell line growth inhibition [TAK]
Conditions: spheroids with HUVEC and MSC; for pIC50: curve of first compound; for viability, T/C: stronger effect = lower value
From the text: Combinatorial screen of targeted agents with TAK-243 and ipatasertib in multi-cell type tumor spheroids
A high-throughput screen of multi-cell type tumor spheroids was designed to identify active combinations of targeted small molecules and TAK-243 or ipatasertib. Complex spheroids include a stromal component modeled by human endothelial cells (HUVEC) and fibroblasts modeled by human mesenchymal stem cells (MSCs). The concentration ranges selected for each drug and investigational agent were based upon clinically achievable concentrations if the clinical Cmax of the agent was known.
Compounds. The drugs and investigational agents: TAK-243 (785004), ipatasertib (767898), everolimus (733504), selumetinib (741078), bortezomib (756655), trametinib (758246), ixazomib (758254), vemurafenib (761431), dabrafenib (764134), sapanisertib (764658), alpelisib (765974), and copanlisib (816437), were obtained from the National Cancer Institute (NCI) Developmental Therapeutics Program Chemical Repository. The FDA-approved anticancer drug set is available from the NCI Developmental Therapeutics Program. […] The stock solutions were prepared in dimethyl sulfoxide (DMSO, Sigma-Aldrich, St. Louis, MO, cat. D2650) at 800-fold the tested concentration and stored at -70 degrees C prior to their use. All drugs and investigational agents were tested over a range starting from a high concentration at or near the clinical Cmax and decreasing in half-log increments. If the clinical Cmax for an agent had not been determined, the highest concentration tested was 10 microM.
NCI60 Cell Culture. NCI60 cell lines were obtained from the NCI Developmental Therapeutics Program Tumor Repository. For each lot of cells, the Repository performed Applied Biosystems AmpFLSTR Identifiler testing with PCR amplification to confirm consistency with the published Identifier STR profile for each cell line. Cells were kept in continuous culture for no more than 20 passages. The optimal seeding densities for each of the cell lines at each time point assessed were determined prior to performing the concentration response studies. Briefly, the NCI60 human tumor lines were grown as monolayers in RPMI 1640 medium supplemented with 10% FBS and 2 mmol/L L-glutamine.
An additional 2 lines were from the NCI60 cell line panel including melanomas, MALME-3M and SK-MEL-2. Pooled donor human umbilical vein endothelial cells (HUVEC, Lonza, cat. CC-2519) and human mesenchymal stem cells (hMSC, Lonza, cat. PT-2501) were purchased from Lonza (Walkersville, MD).
PDMR cell lines were grown in complete medium (DC medium): Dulbecco's modified Eagle's medium (DMEM)/F12 supplemented with 5% fetal bovine serum (FBS), 2 mM L-glutamine, 100 U/mL penicillin and 100 µg/ml streptomycin, 0.4 µg/ml hydrocortisone, 10 ng/ml epidermal growth factor (EGF) recombinant human protein, 24 µg/mL adenine, and 0.1 mg/mL primocin. During culture from frozen stock vials, PDMR cells were cultured in the same medium containing 10 µM Y-27632 (see Table 3). The PDCs were cultured in complete DMEM/F12 media without 10 microM Y-27632 dihydrochloride for at least two passages prior to the screen. The pooled donor HUVEC and hMSC were cultured in endothelial cell growth medium 2 (PromoCell, Heidelberg, Germany, cat. C-22011) and mesenchymal stem cell growth medium 2 (PromoCell, cat. C-28009), respectively. For all experiments, HUVEC and hMSC were used at passages </=5.
For the pre-screen, cell seeding densities were determined from a titration spanning the range from 5,000 to 313 cells per well. The mct-spheroids including 60% malignant cells, 25% HUVEC and 15% MSC dispensed as a mixture into U-bottom Ultra-Low Attachment 384-well plates (Corning, NY)
High-throughput Drug Combination Screening.
Prior to their inoculation into 384-well plates, malignant cells, HUVEC, and hMSC were removed from T flasks using TrypLE express (Thermo Fisher Scientific, cat. 12605036) and harvested by centrifugation for 5 min at 233 x g. […]
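Wherever pIC50 is given: spheroids exposed to drugs for seven days before viability readout.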
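Wherever viability, T/C is given: spheroids exposed to drugs for seven days before viability readout.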

COC1CC2CCC(C)C(O)(O2)C(=O)C(=O)N2CCCCC2C(=O)OC(C(C)CC2CCC(OCCO)C(OC)C2)CC(=O)C(C)C=C(C)C(O)C(OC)C(=O)C(C)CC(C)C=CC=CC=C1C (stereo not given) + CC(C)NCC(C(=O)N1CCN(c2ncnc3c2C(C)CC3O)CC1)c1ccc(Cl)cc1
pIC50 (second compound 0.3 µM): < 7.00 | pIC50 (second compound 0.949 µM): < 7.00 | pIC50 (second compound 3 µM): < 7.00 | pIC50 (second compound 9.49 µM): < 7.00 | pIC50 (second compound 30 µM): < 7.00 | viability, T/C (second compound 0.3 µM, first compound 0.000316 µM): 108% | viability, T/C (second compound 0.3 µM, first compound 0.001 µM): 117% | viability, T/C (second compound 0.3 µM, first compound 0.00316 µM): 99.9% | viability, T/C (second compound 0.3 µM, first compound 0.01 µM): 99.2% | viability, T/C (second compound 0.3 µM, first compound 0.0316 µM): 96.8% | viability, T/C (second compound 0.3 µM, first compound 0.1 µM): 91.7% | viability, T/C (second compound 0.949 µM, first compound 0.000316 µM): 115% | viability, T/C (second compound 0.949 µM, first compound 0.001 µM): 110% | viability, T/C (second compound 0.949 µM, first compound 0.00316 µM): 100% | viability, T/C (second compound 0.949 µM, first compound 0.01 µM): 104% | viability, T/C (second compound 0.949 µM, first compound 0.0316 µM): 88.1% | viability, T/C (second compound 0.949 µM, first compound 0.1 µM): 91.4% | viability, T/C (second compound 3 µM, first compound 0.000316 µM): 102% | viability, T/C (second compound 3 µM, first compound 0.001 µM): 112% | viability, T/C (second compound 3 µM, first compound 0.00316 µM): 97% | viability, T/C (second compound 3 µM, first compound 0.01 µM): 94.2% | viability, T/C (second compound 3 µM, first compound 0.0316 µM): 92.1% | viability, T/C (second compound 3 µM, first compound 0.1 µM): 95.3% | viability, T/C (second compound 9.49 µM, first compound 0.000316 µM): 90.7% | outcome (second compound 9.49 µM, first compound 0.001 µM): inactive | viability, T/C (second compound 9.49 µM, first compound 0.00316 µM): 98% | viability, T/C (second compound 9.49 µM, first compound 0.01 µM): 95% | viability, T/C (second compound 9.49 µM, first compound 0.0316 µM): 96.2% | viability, T/C (second compound 9.49 µM, first compound 0.1 µM): 85.1% | viability, T/C (second compound 30 µM, first compound 0.000316 µM): 82.7% | viability, T/C (second compound 30 µM, first compound 0.001 µM): 95.2% | viability, T/C (second compound 30 µM, first compound 0.00316 µM): 86.4% | viability, T/C (second compound 30 µM, first compound 0.01 µM): 77% | viability, T/C (second compound 30 µM, first compound 0.0316 µM): 76.4% | viability, T/C (second compound 30 µM, first compound 0.1 µM): 77.2%

Cn1cnc2c(F)c(Nc3ccc(Br)cc3Cl)c(C(=O)NOCCO)cc21 + CC(C)NCC(C(=O)N1CCN(c2ncnc3c2C(C)CC3O)CC1)c1ccc(Cl)cc1
pIC50 (second compound 0.3 µM): 5.80 | pIC50 (second compound 0.949 µM): 5.79 | pIC50 (second compound 3 µM): 5.79 | pIC50 (second compound 9.49 µM): 5.81 | pIC50 (second compound 30 µM): 5.85 | viability, T/C (second compound 0.3 µM, first compound 0.00949 µM): 110% | viability, T/C (second compound 0.3 µM, first compound 0.03 µM): 120% | viability, T/C (second compound 0.3 µM, first compound 0.0949 µM): 110% | viability, T/C (second compound 0.3 µM, first compound 0.3 µM): 108% | viability, T/C (second compound 0.3 µM, first compound 0.949 µM): 77.5% | viability, T/C (second compound 0.3 µM, first compound 3 µM): 16.6% | viability, T/C (second compound 0.949 µM, first compound 0.00949 µM): 111% | viability, T/C (second compound 0.949 µM, first compound 0.03 µM): 108% | viability, T/C (second compound 0.949 µM, first compound 0.0949 µM): 118% | viability, T/C (second compound 0.949 µM, first compound 0.3 µM): 88.7% | viability, T/C (second compound 0.949 µM, first compound 0.949 µM): 78.9% | viability, T/C (second compound 0.949 µM, first compound 3 µM): 19.6% | viability, T/C (second compound 3 µM, first compound 0.00949 µM): 101% | viability, T/C (second compound 3 µM, first compound 0.03 µM): 118% | viability, T/C (second compound 3 µM, first compound 0.0949 µM): 115% | viability, T/C (second compound 3 µM, first compound 0.3 µM): 105% | viability, T/C (second compound 3 µM, first compound 0.949 µM): 79.1% | viability, T/C (second compound 3 µM, first compound 3 µM): 17.6% | viability, T/C (second compound 9.49 µM, first compound 0.00949 µM): 103% | viability, T/C (second compound 9.49 µM, first compound 0.03 µM): 114% | viability, T/C (second compound 9.49 µM, first compound 0.0949 µM): 112% | viability, T/C (second compound 9.49 µM, first compound 0.3 µM): 102% | viability, T/C (second compound 9.49 µM, first compound 0.949 µM): 75.2% | viability, T/C (second compound 9.49 µM, first compound 3 µM): 15.3% | viability, T/C (second compound 30 µM, first compound 0.00949 µM): 84.6% | viability, T/C (second compound 30 µM, first compound 0.03 µM): 92.4% | viability, T/C (second compound 30 µM, first compound 0.0949 µM): 105% | viability, T/C (second compound 30 µM, first compound 0.3 µM): 83.9% | viability, T/C (second compound 30 µM, first compound 0.949 µM): 72.4% | viability, T/C (second compound 30 µM, first compound 3 µM): 8.88%
